Measurements reported in the supplement of paper PMC8671470.
± gives the standard deviation of the averaged measurements.

Key:
Settings in all cases: 72 h
MV4-11 [1] = system: MV4-11
Outline: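 Each of fifteen myeloid leukaemia cell lines was seeded in RPMI 1640 at a density titrated to its linear growth range. The cells were incubated for 72 h at 37 °C and 5% CO2 with compounds at five tenfold doses from 1 to 10,000 nM, in duplicate. After ATP luminescence was normalised to vehicle and to a positive control at 10 µM, four-parameter log-logistic curves were fitted. These curves gave the IC50.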

HL-60 [2] = test: cell viability (% survival relative to DMSO control); higher = less cytotoxic
Outline: (§1)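 Area under the curve, where listed, was derived from four-parameter log-logistic fits with drc and PharmacoGx. These fits used CellTiter-Glo viability from HL-60 cells in RPMI 1640 with 10% FBS, normalised to DMSO wells and wells holding 10 μM proteasome inhibitor. The full library was rescreened on 384-well plates in duplicate at five tenfold concentrations, 1–10,000 nM, with DMSO or 100 nM of one of three metabolic inhibitors, for 72 h at 37 °C, 5% CO2.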

BV-173 = test: cell viability (% survival relative to DMSO control, bortezomib = 0%); higher = less cytotoxic
Outline: (§2)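 Percent survival figures are means of duplicate wells. They were obtained by CellTiter-Glo luminescence after 10 AML and 5 CML cell lines spent 72 h at 37 °C with 5% CO2 in 384-well plates with compounds at 1, 10, 100, 1000 or 10000 nM. Vehicle was set to 100% and a 10 µM positive control to 0%.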

HEL = test: as above
Outline: as §2

HL-60 [3] = test: as above
Outline: as §2

K-562 = test: as above
Outline: as §2

KCL-22 = test: as above
Outline: as §2

KG-1 = test: as above
Outline: as §2

KU-812 = test: as above
Outline: as §2

LAMA-84 = test: as above
Outline: as §2

ML-2 = test: as above
Outline: as §2

MOLM-13 = test: as above
Outline: as §2

MV4-11 [4] = test: as above
Outline: as §2

Mono-Mac-6 = test: as above
Outline: as §2

NOMO-1 = test: as above
Outline: as §2

SHI-1 = test: as above
Outline: as §2

THP-1 = test: as above
Outline: as §2

HL-60 [5] = test: area under dose-response curve (viability, 1 nM-10 uM) (fraction (0-1)); higher = more sensitive
Outline: as §1

CC(C)c1nc(CN(C)C(=O)N[C@H](C(=O)N[C@@H](Cc2ccccc2)C[C@H](O)[C@H](Cc2ccccc2)NC(=O)OCc2cncs2)C(C)C)cs1 [Ritonavir]
Settings	IC50 (cell viability) [µM]
MV4-11 [1]	> 10

cell viability [%], HL-60 [2]
Settings	0.001 µM	0.01 µM	0.1 µM	1 µM	10 µM
co-treatment: AZD3965 100 nM	99.9 ± 2.7	102 ± 1.6	78.3 ± 26	102 ± 3.5	104 ± 3.9
co-treatment: DMSO vehicle	101 ± 2.2	103.3 ± 0.22	94.5 ± 3.8	87.4 ± 17	105.8 ± 0.3
co-treatment: GSK2194069 100 nM	94.5 ± 6.6	110 ± 17	88 ± 24	86.6 ± 30	67.1 ± 3.1
co-treatment: pictilisib 100 nM	105 ± 2	101 ± 2.1	97.5 ± 4.1	93.9 ± 7.7	99.2 ± 1.5

Settings	area under dose-response curve, co-treatment: AZD3965 100 nM	area under dose-response curve, co-treatment: DMSO vehicle	area under dose-response curve, co-treatment: pictilisib 100 nM	cell viability, 1 nM [%]	cell viability, 10 nM [%]	cell viability, 100 nM [%]	cell viability, 1000 nM [%]	cell viability, 10000 nM [%]
BV-173	–	–	–	107	89.8	96	85.7	39.1
HEL	–	–	–	90.8	99.8	107	94.2	87.8
HL-60 [3]	–	–	–	99	101	113	103	86.6
HL-60 [5]	< 0.0301	< 0.0301	< 0.0301	–	–	–	–	–
K-562	–	–	–	112	112	89	108	75.5
KCL-22	–	–	–	99.4	102	108	94.5	87.2
KG-1	–	–	–	95.7	96.8	108	101	71.1
KU-812	–	–	–	109	95.1	102	95.9	78.8
LAMA-84	–	–	–	115	103	102	100	88.6
ML-2	–	–	–	94.2	94.2	108	83.5	64.4
MOLM-13	–	–	–	104	104	95.3	96.2	99.3
MV4-11 [4]	–	–	–	120	98.1	95.9	87.2	71.9
Mono-Mac-6	–	–	–	91.7	98.6	97.6	88.1	79
NOMO-1	–	–	–	108	88.5	103	90.3	81.3
SHI-1	–	–	–	100	101	109	104	83.1
THP-1	–	–	–	97.1	91.7	107	97.3	88.2

CCCCCCCCCCC[C@@H](C[C@@H]1OC(=O)[C@H]1CCCCCC)OC(=O)[C@H](CC(C)C)NC=O [Orlistat]
Settings	IC50 (cell viability) [µM]
MV4-11 [1]	> 10

cell viability [%], HL-60 [2]
Settings	0.001 µM	0.01 µM	0.1 µM	1 µM	10 µM
co-treatment: AZD3965 100 nM	98.6 ± 3.3	99.5 ± 3.5	102 ± 4.7	94.9 ± 5.9	100 ± 1.6
co-treatment: DMSO vehicle	93.7 ± 0.7	105 ± 2.1	104 ± 3.7	98.57 ± 0.82	99.8 ± 2.4
co-treatment: GSK2194069 100 nM	94.4 ± 1.7	96.4 ± 6.2	109 ± 24	94.7 ± 3.8	77.7 ± 8.3
co-treatment: pictilisib 100 nM	99.1 ± 2.1	109 ± 6.4	95.6 ± 3.8	94.4 ± 7.5	90.5 ± 10

Settings	area under dose-response curve, co-treatment: AZD3965 100 nM	area under dose-response curve, co-treatment: DMSO vehicle	area under dose-response curve, co-treatment: GSK2194069 100 nM	area under dose-response curve, co-treatment: pictilisib 100 nM	cell viability, 1 nM [%]	cell viability, 10 nM [%]	cell viability, 100 nM [%]	cell viability, 1000 nM [%]	cell viability, 10000 nM [%]
BV-173	–	–	–	–	86.3	92	79.9	87.5	82
HEL	–	–	–	–	102	107	95.3	101	90.8
HL-60 [3]	–	–	–	–	122	105	108	106	98.7
HL-60 [5]	< 0.0301	< 0.0301	0.0449	< 0.0301	–	–	–	–	–
K-562	–	–	–	–	118	85.1	88.2	103	103
KCL-22	–	–	–	–	105	87.9	90.2	97	86.9
KG-1	–	–	–	–	96.2	99.6	96.4	100	53.3
KU-812	–	–	–	–	98.3	92.1	96.4	98.5	89.6
LAMA-84	–	–	–	–	101	103	93.9	93.7	94.4
ML-2	–	–	–	–	93.6	101	93.6	88.6	86
MOLM-13	–	–	–	–	140	104	87.9	65.3	95.2
MV4-11 [4]	–	–	–	–	107	97.2	71.6	109	79.8
Mono-Mac-6	–	–	–	–	114	91.1	97.7	103	87.7
NOMO-1	–	–	–	–	101	95	96.6	106	96.5
SHI-1	–	–	–	–	101	102	106	108	102
THP-1	–	–	–	–	97.5	99	85.2	95	94.6

CCCc1cc(-c2nc(-c3ccc(C)cc3)cs2)ccn1 [Fatostatin]
Settings	IC50 (cell viability) [µM]
MV4-11 [1]	> 10

cell viability [%], HL-60 [2]
Settings	0.001 µM	0.01 µM	0.1 µM	1 µM	10 µM
co-treatment: AZD3965 100 nM	75.1 ± 31	101.7 ± 0.39	102 ± 2.5	103 ± 7.9	79.9 ± 18
co-treatment: DMSO vehicle	92.9 ± 9.1	96.1 ± 6.7	101 ± 4.4	98.5 ± 4.1	94.39 ± 0.83
co-treatment: GSK2194069 100 nM	95.9 ± 4.6	94.22 ± 0.22	96.1 ± 8.5	92.5 ± 13	70.7 ± 7
co-treatment: pictilisib 100 nM	90.3 ± 5.6	97.8 ± 3.4	105 ± 6.5	96.7 ± 17	63.5 ± 11

Settings	area under dose-response curve, co-treatment: AZD3965 100 nM	area under dose-response curve, co-treatment: DMSO vehicle	area under dose-response curve, co-treatment: GSK2194069 100 nM	area under dose-response curve, co-treatment: pictilisib 100 nM	cell viability, 1 nM [%]	cell viability, 10 nM [%]	cell viability, 100 nM [%]	cell viability, 1000 nM [%]	cell viability, 10000 nM [%]
BV-173	–	–	–	–	90.6	98.4	94.9	112	24.8
HEL	–	–	–	–	92.6	97.8	92.1	108	90.4
HL-60 [3]	–	–	–	–	110	84.6	95.5	105	43.1
HL-60 [5]	< 0.0301	< 0.0301	0.0533	0.0342	–	–	–	–	–
K-562	–	–	–	–	103	95.9	102	117	60.2
KCL-22	–	–	–	–	98.3	86.2	92.5	113	55.3
KG-1	–	–	–	–	102	99.8	106	90.3	23.1
KU-812	–	–	–	–	100	101	87.2	106	74.1
LAMA-84	–	–	–	–	105	92.2	104	109	79.8
ML-2	–	–	–	–	93.4	101	92	111	29.5
MOLM-13	–	–	–	–	89.2	78.1	106	108	104
MV4-11 [4]	–	–	–	–	105	95.9	93.2	98.2	65.7
Mono-Mac-6	–	–	–	–	94.5	97.3	101	111	87.8
NOMO-1	–	–	–	–	98.3	91.3	104	111	97.4
SHI-1	–	–	–	–	106	91.7	105	114	14.4
THP-1	–	–	–	–	95.2	90.1	108	98.5	81.1
